# Test results taken from PubChem BioAssay (NCI).
#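 In this assay, cells in 96-well plates receive the compound at five concentrations for 48 hours. Endpoints are linearly interpolated between the surrounding concentrations. GI50 is the concentration that inhibits growth by half. TGI marks complete inhibition of growth.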
# Key:
# Experiment in all cases: growth of human tumour cells (NCI), 48 h
# A498 renal = tested on: A498 renal
# DLD-1 colon = tested on: DLD-1 colon
# HCT-116 colon = tested on: HCT-116 colon
# NCI-H226 lung = tested on: NCI-H226 lung
# NCI-H23 lung = tested on: NCI-H23 lung
# NCI-H460 lung = tested on: NCI-H460 lung
# OVCAR-8 ovarian = tested on: OVCAR-8 ovarian
# SK-OV-3 ovarian = tested on: SK-OV-3 ovarian
# SN12C renal = tested on: SN12C renal
# PC-3 prostate = tested on: PC-3 prostate
SMILES,TGI (A498 renal),TGI (DLD-1 colon),TGI (HCT-116 colon),TGI (NCI-H226 lung),TGI (NCI-H23 lung),TGI (NCI-H460 lung),TGI (OVCAR-8 ovarian),TGI (SK-OV-3 ovarian),TGI (SN12C renal),TGI (PC-3 prostate),GI50 (A498 renal),GI50 (HCT-116 colon),GI50 (NCI-H226 lung),GI50 (NCI-H23 lung),GI50 (NCI-H460 lung),GI50 (OVCAR-8 ovarian),GI50 (PC-3 prostate),GI50 (SK-OV-3 ovarian),GI50 (SN12C renal)
COc1ccc2c3c1OC1CC(O)C=CC31CCN(C)C2 (stereo not drawn),> 150 µM,> 54.1 µM,> 150 µM,> 150 µM,> 150 µM,> 150 µM,> 15 µM,> 150 µM,> 150 µM,,,,,,,,,,
CCCC/C=C1\CCC(CN2CCCCC2)C1=O (stereo not drawn),31.6 µM,3.25 µM,36.7 µM,63.1 µM,45.1 µM,55.5 µM,33.1 µM,> 56.2 µM,25.9 µM,> 100 µM,,,,,,,,,
CCOC(=O)/C(O)=C1\C(=O)N(C)C(=O)C1c1ccc(OC)c(OC)c1 (stereo not drawn),> 100 µM,> 100 µM,> 100 µM,> 100 µM,> 100 µM,> 100 µM,> 100 µM,> 100 µM,> 100 µM,,,,,,,,,,
O=C(Nc1ccccc1F)c1c(O)nc2sccn2c1=O,> 10 µM,,> 10 µM,> 10 µM,> 10 µM,> 10 µM,> 10 µM,> 10 µM,> 10 µM,> 10 µM,,,,,,,,,
O=C1C(Br)=CC2([N+](=O)[O-])CCNc3c(O)c4c5c(c3C2=C1Br)=NCCC=5C=N4 (stereo not drawn),14.5 µM,1.49 µM,1.09 µM,6.79 µM,3.41 µM,12.1 µM,2.38 µM,13.3 µM,5.52 µM,,,,,,,,,,
COc1ccc2[nH]c(C(=O)N3CC(CCl)c4ccc(N)cc43)cc2c1 (stereo not drawn),,,,> 100 µM,0.501 µM,3.24 µM,> 68.9 µM,> 100 µM,1.62 µM,10 µM,,,,,,,,,
COC(=O)/C=C\Sc1ccn(/C=C\C(=O)OC)c(=S)n1,35.6 µM,,,,64.3 µM,,38.1 µM,,82.9 µM,46.5 µM,,,,,,,,,
O=C(CCCn1cnc([N+](=O)[O-])n1)NCCn1ccnc1[N+](=O)[O-],,,,> 100 µM,> 100 µM,> 100 µM,,> 100 µM,,> 100 µM,,,,,,,,,
CC1(C)OP23(NC(=O)OC2(C(F)(F)F)c2ccccc2O3)OC1(C)C (stereo not drawn),,> 100 µM,> 100 µM,> 100 µM,> 100 µM,> 100 µM,> 100 µM,> 100 µM,> 100 µM,,,,,,,,,,
CC(=O)O[C@H]1CC[C@@]2(C)C(=CC[C@@H]3[C@@H]2CC[C@]2(C)C(c4cccnc4)=CC[C@@H]32)C1,74 µM,,> 100 µM,> 100 µM,> 100 µM,> 100 µM,> 100 µM,95.8 µM,> 100 µM,> 100 µM,10.4 µM,4.49 µM,17.7 µM,6.6 µM,5.91 µM,19.3 µM,3.98 µM,5.83 µM,17.2 µM
N/N=C(\C(=O)Nc1c(Cl)cc([N+](=O)[O-])cc1Cl)C(c1cnc2ccc([N+](=O)[O-])cc2n1)[N+](=O)[O-] (stereo not drawn),> 100 µM,> 100 µM,> 100 µM,> 100 µM,> 100 µM,> 100 µM,> 100 µM,> 100 µM,> 100 µM,,,,,,,,,,
